Key:
[1] = biological target: T1, Type-1 angiotensin II receptor (Homo sapiens, UniProt P30556); test: Displacement of [125-I]-[Sar1Ile8]-angiotensin II from human AT1R expressed in HEK293 cell membrane assessed as inhibition constant by radioligand binding assay; format: cell membranes
T1 sequence (P30556 whole entry): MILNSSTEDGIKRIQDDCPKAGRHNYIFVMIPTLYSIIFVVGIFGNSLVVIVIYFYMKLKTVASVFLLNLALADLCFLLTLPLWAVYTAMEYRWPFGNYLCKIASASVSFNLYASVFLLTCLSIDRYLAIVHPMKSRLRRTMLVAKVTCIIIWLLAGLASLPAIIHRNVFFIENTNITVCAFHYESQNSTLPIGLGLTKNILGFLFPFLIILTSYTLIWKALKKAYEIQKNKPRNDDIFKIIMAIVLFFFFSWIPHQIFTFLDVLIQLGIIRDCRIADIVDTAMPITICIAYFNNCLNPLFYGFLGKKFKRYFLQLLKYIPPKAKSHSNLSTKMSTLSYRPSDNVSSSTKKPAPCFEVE

[2] = biological target: T2, Type-2 angiotensin II receptor (Homo sapiens, UniProt P50052); test: Displacement of [125-I]-[Sar1Ile8]-angiotensin II from human AT2R expressed in HEK293 cell membrane assessed as inhibition constant by radioligand binding assay; format: cell membranes
T2 sequence (P50052 whole entry): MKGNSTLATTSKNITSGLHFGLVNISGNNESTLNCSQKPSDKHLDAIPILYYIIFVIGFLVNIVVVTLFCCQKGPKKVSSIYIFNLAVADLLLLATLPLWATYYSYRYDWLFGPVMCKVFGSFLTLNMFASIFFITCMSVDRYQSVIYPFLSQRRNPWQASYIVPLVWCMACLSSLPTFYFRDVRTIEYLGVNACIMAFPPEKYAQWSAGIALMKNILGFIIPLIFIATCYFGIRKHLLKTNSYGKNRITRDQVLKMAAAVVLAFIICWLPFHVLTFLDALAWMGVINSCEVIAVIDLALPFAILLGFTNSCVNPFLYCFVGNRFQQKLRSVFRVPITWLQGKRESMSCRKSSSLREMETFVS

[3] = Displacement of [125-I]-angiotensin II from AT2R in pig myometrial membrane assessed as inhibition constant incubated for 1.5 hrs by gamma counter analysis; format: cell membranes, Sus scrofa, Myometrium
[4] = Metabolic stability in human liver microsomes assessed as half life at 1 uM preincubated for 5 mins followed by NADPH addition and measured upto 60 mins by HPLC-MS/MS analysis; format: ADME, Microsome; conditions: time < 65 min
[5] = Metabolic stability in CD-1 mouse liver microsomes assessed as half life at 1 uM preincubated for 5 mins followed by NADPH addition and measured upto 60 mins by HPLC-MS/MS analysis; format: ADME, Microsome; conditions: time < 65 min
[6] = Metabolic stability in Sprague-Dawley rat liver microsomes assessed as half life at 1 uM preincubated for 5 mins followed by NADPH addition and measured upto 60 mins by HPLC-MS/MS analysis; format: ADME, Microsome
Homo sapiens = species: Homo sapiens; test: Selectivity index, ratio of Ki for displacement of [125-I]-[Sar1Ile8]-angiotensin II from human AT2R expressed in HEK293 cell membrane to Ki for displacement of [125-I]-[Sar1Ile8]-angiotensin II from human AT1R expressed in HEK293 cell membrane; format: cell membranes

Row | Ki [1] [µM] | Ki [2] [µM] | Ki [3] [µM] | half-life at 1 µM [4] [min] | half-life at 1 µM [5] [min] | half-life at 1 µM [6] [min] | SMILES | Ratio Ki (Homo sapiens)
1 | 0.71 | 0.011 | – | – | – | – | CCCCOC(=O)NS(=O)(=O)c1ccc(CCC)cc1-c1ccc(Cn2c(CC)nc3ccccc32)cc1 | –
2 | – | – | 0.0004 | – | – | – | CCCCOC(=O)NS(=O)(=O)c1sc(CC(C)C)cc1-c1ccc(Cn2ccnc2)cc1 [BULOXIBUTID] | –
3 | > 1 | 0.029 | – | 10 | 5 | 5 | CCCCOC(=O)NS(=O)(=O)c1ccc(CCC)cc1-c1ccc(Cn2cnc3ccccc32)cc1 | –
4 | > 1 | 0.59 | – | – | – | – | CCCCOC(=O)NS(=O)(=O)c1ccc(CCC)cc1-c1ccc(Cn2c(-c3ccccc3)nc3ccccc32)cc1 | –
5 | 0.41 | 0.035 | – | – | – | – | CCCCOC(=O)NS(=O)(=O)c1ccc(CCC)cc1-c1ccc(Cn2c(C3CCCC3)nc3ccccc32)cc1 | 10
6 | > 3 | 0.0051 | – | 21 | 5 | 16 | CCCCOC(=O)NS(=O)(=O)c1ccc(CCC)cc1-c1ccc(Cn2c(-c3nccs3)nc3ccccc32)cc1 | –
7 | > 1 | 0.0053 | – | 12 | 7 | 20 | CCCCOC(=O)NS(=O)(=O)c1ccc(CCC)cc1-c1ccc(Cn2c(C(C)(C)C)nc3ccccc32)cc1 | –
8 | > 3 | 0.0045 | – | 20 | 6 | 21 | CCCc1ccc(S(=O)(=O)NC(=O)OCCCC(F)(F)F)c(-c2ccc(Cn3c(C(C)(C)C)nc4ccccc43)cc2)c1 | –
9 | > 3 | 0.46 | – | – | – | – | CCCCOC(=O)NS(=O)(=O)c1ccc(CCC)cc1-c1ccc(Cn2c(C34CC5CC(CC(C5)C3)C4)nc3ccccc32)cc1 | –
10 | > 1 | 0.013 | – | 10 | 4 | 7 | CCCCOC(=O)NS(=O)(=O)c1ccc(CCC)cc1-c1ccc(Cn2c(C(F)(F)F)nc3ccccc32)cc1 | –
11 | > 3 | 0.019 | – | – | – | – | CCCCOC(=O)NS(=O)(=O)c1ccc(CCC)cc1-c1ccc(Cn2c(CC(C)C)nc3ccccc32)cc1 | –
12 | > 3 | 0.015 | – | – | – | – | CCCCOC(=O)NS(=O)(=O)c1ccc(CCC)cc1-c1ccc(Cn2c(Cc3ccccc3)nc3ccccc32)cc1 | –
13 | > 3 | 0.13 | – | – | – | – | CCCCOC(=O)NS(=O)(=O)c1ccc(CCC)cc1-c1ccc(Cn2c(C3CCCCC3)nc3ccccc32)cc1 | –
14 | > 3 | 0.006 | – | – | – | – | CCCc1ccc(S(=O)(=O)NC(=O)OCCC(F)(F)C(F)(F)F)c(-c2ccc(Cn3c(C(C)(C)C)nc4ccccc43)cc2)c1 | –
15 | 0.62 | 0.0094 | – | 10 | 4 | 6 | CCCCOC(=O)NS(=O)(=O)c1ccc(CCC)cc1-c1ccc(Cn2c(C)nc3ccccc32)cc1 | –
16 | 0.71 | 0.031 | – | – | – | – | CCCCOC(=O)NS(=O)(=O)c1ccc(CCC)cc1-c1ccc(Cn2c(C3CC3)nc3ccccc32)cc1 | –
17 | 0.39 | 0.004 | – | – | – | – | CCCCOC(=O)NS(=O)(=O)c1ccc(CCC)cc1-c1ccc(Cn2c(C(C)C)nc3ccccc32)cc1 | 100
18 | 0.18 | 0.0092 | – | – | – | – | CCCCOC(=O)NS(=O)(=O)c1ccc(CCC)cc1-c1ccc(Cn2c(CCCC)nc3ccccc32)cc1 | –
19 | > 3 | 0.012 | – | 15 | 6 | 16 | CCCc1ccc(S(=O)(=O)NC(=O)OCCCC(F)(F)F)c(-c2cc(F)c(Cn3c(C(C)(C)C)nc4ccccc43)c(F)c2)c1 | –
20 | 0.46 | 0.014 | – | – | – | – | CCCCOC(=O)NS(=O)(=O)c1ccc(CCC)cc1-c1ccc(Cn2c(CCC)nc3ccccc32)cc1 | –
21 | > 3 | 0.011 | – | – | – | – | CCCCOC(=O)NS(=O)(=O)c1ccc(CCC)cc1-c1cc(F)c(Cn2c(C(C)(C)C)nc3ccccc32)c(F)c1 | –
22 | 0.4 | 0.012 | – | – | – | – | CCCCOC(=O)NS(=O)(=O)c1ccc(CCC)cc1-c1ccc(Cn2c(C3CCC3)nc3ccccc32)cc1 | –

Source: ChEMBL document CHEMBL5143706, “2-Alkyl substituted benzimidazoles as a new class of selective AT2 receptor ligands” (Bioorg Med Chem, 2022)
